Test results from US12156871B2, “Substituted azacycles as muscarinic M1 receptor positive allosteric modulators” (SUVEN LIFE SCIENCES LIMITED, priority 2017, dated 2024).

Assays:
[1] = Protein binding assay (HT dialysis), dog plasma; assay type: in vitro ADME; details: pH 7.4, Mean ± SEM, n = 3, read-out: Fu Plasma (converted)
Description: (§1) Unbound fractions of test compounds in plasma, brain homogenate and liver microsomes were determined using high-throughput dialysis (HT dialysis). Briefly, dialysis membranes were soaked in deionized water for 20 minutes and then in deionized water with 30% ethanol for 15 minutes and finally in phosphate buffer until use. Membranes were rinsed in phosphate buffer before assembling. The membranes were layered between teflon bars of dialysis assembly. Stock solutions of test compound/comparative compound were prepared at 10 mM in DMSO, diluted to 1 mM in acetonitrile and further diluted to 100 μM in mixture of water and acetonitrile (1:1 v/v). Human plasma (pool of 3) was prepared from human blood (3 donors) by centrifuging at 4000 rpm for 10 min at 4° C. Rat and dog blood were obtained on the day of the study and centrifuged to obtain plasma. Rat brains were isolated, cleaned and homogenized with 2 volumes of buffer (3 fold dilution). Liver microsomes were prepared at 0.5 mg/mL in phosphate buffer (100 mM, pH 7.4). The dialysate chambers were loaded with 150 μL of 100 mM phosphate buffer (pH 7.4) in triplicates. The matrix chambers were loaded with 150 μL of the plasma or brain homogenate or microsomal suspension spiked with test compound/comparative compound at a final concentration of 1 μM. 50 μL of the sample was removed from both the chambers at 0 h. The plate was sealed and incubated at 37° C. for 6 h at 100 rpm. After 6 h, 50 μL of the sample was removed from both the chambers. Equal volumes of buffer or human plasma/microsomal suspension were added to the plasma/microsomal and buffer samples respectively to create identical sample matrices for analysis. The samples were precipitated with 150 μL of acetonitrile containing fluoxetine as an internal standard. All the samples were centrifuged at 10000 rpm for 10 minutes at 4° C.

[2] = Protein binding assay (HT dialysis), human liver microsomes; assay type: in vitro ADME; details: pH 7.4, Human liver microsomes 0.5 mg/mL, Mean ± SEM, n = 3, read-out: Fu Microsomes (converted)
Description: as §1

[3] = Protein binding assay (HT dialysis), rat brain homogenate; assay type: in vitro ADME; details: pH 7.4, Mean ± SEM, n = 3, read-out: Fu Brain
Description: as §1

[4] = biological target: T1, human Muscarinic M1 receptor (Homo sapiens, UniProt P11229); test: Allosteric potency EC50 for muscarinic M1 receptor, CHO pCRE-Luc reporter cell assay; assay type: cell-based; details: in presence of EC20 of acetylcholine; CHO cells, luciferase reporter, 4 h
T1 sequence (P11229 1-460): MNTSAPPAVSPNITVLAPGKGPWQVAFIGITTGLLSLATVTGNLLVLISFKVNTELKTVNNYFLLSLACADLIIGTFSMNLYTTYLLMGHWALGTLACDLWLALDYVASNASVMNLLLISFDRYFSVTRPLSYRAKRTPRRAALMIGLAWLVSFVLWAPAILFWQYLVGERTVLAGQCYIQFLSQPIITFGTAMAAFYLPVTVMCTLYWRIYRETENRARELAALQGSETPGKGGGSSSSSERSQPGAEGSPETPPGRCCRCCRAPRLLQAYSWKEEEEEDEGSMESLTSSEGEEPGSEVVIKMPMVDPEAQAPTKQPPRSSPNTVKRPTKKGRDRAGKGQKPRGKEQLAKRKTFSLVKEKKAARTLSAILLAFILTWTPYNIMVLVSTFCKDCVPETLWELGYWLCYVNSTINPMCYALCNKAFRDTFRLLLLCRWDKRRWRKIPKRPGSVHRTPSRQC
Description: A stable CHO cell line expressing recombinant human Muscarinic M1 receptor and pCRE-Luc reporter system was used for cell-based assay. The assay offers a non-radioactive based approach to determine binding of a compound to GPCRs. In this specific assay, the level of intracellular cyclic AMP which is modulated by activation or inhibition of the receptor is measured. The recombinant cells harbor luciferase reporter gene under the control of cAMP response element.
The above cells were grown in 96 well clear bottom white plates in Hams F12 medium containing 10% fetal bovine serum (FBS). Prior to the addition of compounds or standard agonist, cells were serum starved overnight. Increasing concentrations of test compounds were added along with EC20 of acetylcholine in OptiMEM medium to the cells. The incubation was continued at 37° C. in CO2 incubator for 4 h. Medium was removed and cells were washed with phosphate buffered saline. The cells were lysed and luciferase activity was measured in a Luminometer. Luminescence units were plotted against the compound concentrations using Graphpad software. EC50 values of the compounds were defined as the concentration required in stimulating the luciferase activity by 50% in presence of EC20 of acetylcholine.

[5] = Protein binding assay (HT dialysis), rat plasma; assay type: in vitro ADME; details: pH 7.4, Mean ± SEM, n = 3, read-out: Fu Plasma
Description: as §1

[6] = Rodent brain penetration study; assay type: in vivo, Male Wistar rats; details: male, Wistar, brain/plasma, po; rat, 3 mg/kg, p.o. @ 1.0 hr; read-out: Single dose Rat Brain Penetration (Cb/Cp)
Description: Male Wistar rats (260±40 grams) were used as experimental animals. Three animals were housed in each cage. Animals were given water and food ad libitum throughout the experiment and maintained on a 12 h light/dark cycle.
Brain penetration was determined in discrete manner in rats. One day prior to dosing day, male Wistar rats were acclimatized and randomly grouped according to their weight. At each time point (0.5, 1 and 2 h) n=3 animals were used.
The test compounds were suitably preformulated and administered orally at (free base equivalent) 3 mg/kg. Blood samples were removed via cardiac puncture by using isoflurane anesthesia. The animals were sacrificed to collect brain tissue. Plasma was separated and brain samples were homogenized and stored frozen at −20° C. until analysis. The concentrations of the test compounds in plasma and brain were determined using LC-MS/MS method.
The test compounds were quantified in plasma and brain homogenate by qualified LC-MS/MS method using suitable extraction technique. The test compounds were quantified in the calibration range of 1-500 ng/mL in plasma and brain homogenate. Study samples were analyzed using calibration samples in the batch and quality control samples spread across the batch.

[7] = Protein binding assay (HT dialysis), rat liver microsomes; assay type: in vitro ADME; details: pH 7.4, Rat liver microsomes 0.5 mg/mL, Mean ± SEM, n = 3, read-out: Fu Microsomes
Description: as §1

| Compound | fraction unbound at 6 h, 1 μM [1] | fraction unbound at 6 h, 1 μM [2] | fraction unbound at 6 h, 1 μM [3] | EC50 [4] [nM] | fraction unbound at 6 h, 1 μM [5] | Kp at 1 h [6] | fraction unbound at 6 h, 1 μM [7] |
| --- | --- | --- | --- | --- | --- | --- | --- |
| COc1ccc(Cc2cc3c(nc2C)CN([C@H]2CCCC[C@@H]2O)C3=O)cc1 [Example 6, 6-(1S,2S-2-Hydroxycyclohexyl)-2-methyl-3-(4-methoxybenzyl)-6,7-dihydropyrrolo[3,4-b]pyridin-5-one] | 0.115 | 0.938 | 0.123 ± 0.009 | 954 | 0.113 ± 0.003 | 0.35 ± 0.08 | 0.798 ± 0.12 |
| COc1cccc(Cc2cc3c(nc2C)CN([C@H]2CCCC[C@@H]2O)C3=O)c1 [Example 38, 6-(1S,2S-2-Hydroxycyclohexyl)-2-methyl-3-(3-methoxybenzyl)-6,7-dihydropyrrolo[3,4-b]pyridin-5-one] | 0.116 | 0.87 | 0.084 ± 0.002 | 2280 | 0.103 ± 0.003 | 0.45 ± 0.13 | 0.826 ± 0.03 |
